Assays:
Type in all cases: biochemical
Human PKK [1] = target: T1, Human PKK (Homo sapiens (Human), UniProt P03952); experiment: Inhibition of PKK, endpoint assay (human PKK); conditions: substrate H-Pro-Phe-Arg-AMC, 1 h room temperature
Procedure: Subsequently, PPACK II (Calbiochem) was added as a stop solution to achieve a final concentration of 1 μM and fluorescence was measured using an Envision Reader (PerkinElmer) with the wavelength excitation setting of 355 nm and the wavelength emission setting of 460 nm.

human TK1 = human TK1 (Homo sapiens (Human), UniProt P06870); experiment: Inhibition of TK1 (Ki); conditions: column head prints IC50, text above the table says Ki values
Outline: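 Trypsin-activated human TK1 (31.25 nM or 1 U/mL) incubated at 24 °C with 0.1 mM H-Pro-Phe-Arg-AMC and compound in pH 7.8 Tris/NaCl buffer with 0.1% BSA, 1% DMSO; fluorescence read kinetically over 16 min. IC50 from Vmax (2-12 min) four-parameter fit, converted to Ki using substrate KM.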

Human PKK [2] = target: T1, Human PKK; experiment: Inhibition of PKK (Ki), kinetic assay; conditions: 24° C., IC50 corrected for KM
[3] = target: PKK in kaolin activated human platelet poor plasma (Homo sapiens (Human), UniProt P03952); experiment: Inhibition of PKK in kaolin activated human PPP; conditions: global fit over 25, 75, 250, 750 μg/mL kaolin
Procedure: Platelet poor plasma (PPP) obtained from human wholeblood, anticoagulated with Na-Citrat, was incubated with various concentrations of the test compound together with either 25, 75, 250, or 750 μg/mL kaolin in assay buffer for 20 min at 37° C. such that for each kaolin dose used a concentration response was obtained for the test compound.

Sequence of human TK1 (P06870 25-262): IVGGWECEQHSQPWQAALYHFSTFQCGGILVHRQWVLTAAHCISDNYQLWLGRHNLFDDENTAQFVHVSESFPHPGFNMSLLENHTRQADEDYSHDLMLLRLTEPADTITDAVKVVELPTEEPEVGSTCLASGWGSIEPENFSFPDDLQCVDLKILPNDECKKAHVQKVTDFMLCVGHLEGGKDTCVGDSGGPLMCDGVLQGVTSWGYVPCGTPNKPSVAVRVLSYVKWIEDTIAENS
T1 sequence (P03952 391-638): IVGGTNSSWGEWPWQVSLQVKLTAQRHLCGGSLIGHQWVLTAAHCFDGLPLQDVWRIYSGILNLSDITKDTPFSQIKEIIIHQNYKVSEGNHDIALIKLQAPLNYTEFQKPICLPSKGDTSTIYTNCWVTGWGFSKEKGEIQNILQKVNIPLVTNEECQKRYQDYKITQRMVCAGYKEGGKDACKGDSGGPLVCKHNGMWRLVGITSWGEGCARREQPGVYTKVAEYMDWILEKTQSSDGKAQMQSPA
T1 sequence (P03952 20-390 partner): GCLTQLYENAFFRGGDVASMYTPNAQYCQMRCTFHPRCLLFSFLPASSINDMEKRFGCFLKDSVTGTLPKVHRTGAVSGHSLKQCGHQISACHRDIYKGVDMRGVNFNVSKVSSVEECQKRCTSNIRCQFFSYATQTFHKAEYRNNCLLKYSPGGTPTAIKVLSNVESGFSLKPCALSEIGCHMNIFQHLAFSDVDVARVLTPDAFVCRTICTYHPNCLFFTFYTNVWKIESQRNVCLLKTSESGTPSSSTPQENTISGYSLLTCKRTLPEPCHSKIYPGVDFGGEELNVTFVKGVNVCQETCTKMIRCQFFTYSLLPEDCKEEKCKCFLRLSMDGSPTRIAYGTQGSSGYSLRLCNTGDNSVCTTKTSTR
Sequence of PKK in kaolin activated human platelet poor plasma (P03952 391-638): as the sequence (P03952 391-638) above
Sequence of PKK in kaolin activated human platelet poor plasma (P03952 20-390 partner): as the sequence (P03952 20-390 partner) above

Compound	IC50 (Human PKK [1]) [nM]	IC50 (human TK1) [nM]	Ki (Human PKK [2]) [nM]	IC90 [3] [nM]
Cc1nc(N2CC3CC3C2)ccc1Cn1nnc(C(=O)N[C@@H]2CCc3c(C)n[nH]c32)n1 (stereo partly drawn) [Example 9, 2-[(6-{3-Azabicyclo[3.1.0]hexan-3-yl}-2-methylpyridin-3-yl)methyl]-N-[(6R)-3-methyl-1H,4H,5H,6H-cyclopenta[c]pyrazol-6-yl]-2H-1,2,3,4-tetrazole-5-carboxamide]	7	> 10000	5	3480
Cc1nc(N2CC3CC3C2)ccc1Cn1cc(C(=O)N[C@@H]2CCc3c2n[nH]c3C)c2cc(C(=O)O)ccc21 (stereo partly drawn) [Example 108, 1-[(6-{3-Azabicyclo[3.1.0]hexan-3-yl}-2-methylpyridin-3-yl)methyl]-3-{[(6R)-3-methyl-2H,4H,5H,6H-cyclopenta[c]pyrazol-6-yl]carbamoyl}-1H-indole-5-carboxylic acid]	1	> 10000	6	776
Cc1[nH]nc2c1CC[C@H]2NC(=O)c1cn(Cc2ccc(N3CC4CC4C3)nc2)cn1 (stereo partly drawn) [Example 103, 1-[(6-{3-Azabicyclo[3.1.0]hexan-3-yl}pyridin-3-yl)-methyl]-N-[(6R)-3-methyl-2H,4H,5H,6H-cyclo-penta[c]pyrazol-6-yl]-1H-imidazole-4-carboxamide]	2	> 10000	3	416
Cc1nc(N2CC3CC3C2)ccc1Cc1cc(C(=O)N[C@@H]2CCc3c(C)n[nH]c32)sc1C#N (stereo partly drawn) [Example 8, 4-[(6-{3-Azabicyclo[3.1.0]hexan-3-yl}-2-methylpyridin-3-yl)methyl]-5-cyano-N-[(6R)-3-methyl-1H,4H,5H,6H-cyclopenta[c]pyrazol-6-yl]thiophene-2-carboxamide]	4	> 10000	3	1820

Reference: US10695334B2, “Heteroaromatic carboxamide derivatives as plasma kallikrein inhibitors” (Boehringer Ingelheim International GmbH, priority 2018, dated 2020)
